Results taken from patent US12016865B2, “Methods and pharmaceutical compositions for treating candida auris in blood” (Cormedix Inc., priority 2017, dated 2024).

How the values were obtained:
[1] = test system: C. auris blood-borne pathogens; experiment: treating C. auris blood-borne pathogens (FIG. 2); parameters: species or system Candida auris; conditions: blood-borne infection of C. auris
Excerpt: FIG. 2 is a table showing the effectiveness of treating a blood-borne infection of C. auris using taurolidine and/or taurolidine derivatives.

[2] = stored at ambient conditions; cited from earlier work
Microbes = conditions: microbes killed and toxins inactivated; cited from earlier work
[3] = cited from earlier work
[4] = water buffered at pH 7.2; cited from earlier work
[5] = cited from earlier work; remark: listed apart in the source
[6] = saturated solution in deionized water; cited from earlier work

For O=S1(=O)CCN(CN2CCS(=O)(=O)NC2)CN1 [taurolidine, 4,4′-methylene-bis(tetrahydro-1,2,4-thiadiazine)-1,1,1′,1′,-tetraoxide], the “effect on C. auris blood-borne pathogens” value [1] is listed as “neutralize C. auris blood-borne pathogens”, the “stability in the solid state” value [2] is listed as “acceptable stability” and the “destruction time in vitro” value (Microbes) is listed as “approximately 30 minutes”. For the same molecule, the “solubility in CHCl3” value ([3]; CHCl3) was “insoluble”, the “solubility in Dilute HCl” value ([3]; Dilute HCl) was “soluble” and the “solubility in Dilute NaOH” value ([3]; Dilute NaOH) was “soluble”. The “solubility in EtOH” value ([3]; EtOH) was “sparingly soluble”, the “solubility in Water” value ([3]; Water, at 20 degrees C.) was 1% and the “apparent partition coefficient between octanol and water” value [4] was “approximately 0.13”. The “cumulative dose shown safe and well tolerated” value ([5]; cumulative doses) was over 300 g, the “systemic dose shown safe and well tolerated” value ([5]; systemic doses) was “exceeding 40 g/day” and the “pH of saturated solution” value [6] was 7.4.
